Results reported in patent US20170080049A1, “MEDICINE AGAINST GROWTH FAILURE INDUCED BY ADMINISTRATION OF STEROID” (DAIICHI SANKYO COMPANY, LIMITED, priority 2014, published 2017).

Columns and labels:
Assay type in all cases: in vivo
[1] = tested on: dexamethasone-induced rat growth failure model; test: Combined administration study of human-type CNP-53 or various CNP derivatives in dexamethasone-induced rat growth failure model (Example 3); conditions: dexamethasone 0.67 mg/mL pump alone or combined with 15 mg/mL pump of the CNP peptide, 5-week-old male Wistar rat, n=5
Method: Osmotic pumps (MINI-OSMOTIC PUMP Model 2004, available from DURECT CORPORATION, flow rate: 0.25 μL/hr, for 28 days) were charged with 0.67 mg/mL solution of dexamethasone (dexamethasone injection “KS”, available from Kyoritsuseiyaku Corporation) and one osmotic pump was embedded in the hypoderm of the back of each 5-week-old male Crlj:WI (Wistar) rat (5 animals/group, Groups 2 to 6, a total of 25 animals). At the same time, one osmotic pump (the same as above) charged with a 15 mg/mL solution of CNP derivative (A) in Group 3, human-type CNP-53 in Group 4, CNP derivative (B) in Group 5 and CNP derivative (C) in Group 6 was embedded in the hypoderm of the back simultaneously. No substance was administered to the normal control group (Group 1, 5 animals). Then the animals were fed for 28 days, and transitions of the body weight, the body length and the tail length were measured. On the final day, the blood was collected from the abdominal aorta and the animals were caused to die under isoflurane anesthesia, and plasma was separated from the collected blood and the cholesterol concentration was determined by using a “LabAssay (trademark) cholesterol” (available from Wako Pure Chemical Industries, Ltd.). After collecting the blood and causing the animals to die, the right femur and thymus were extracted, and the length of the right femur and the weight of the thymus were measured.

[2] = tested on: dexamethasone-induced growth failure, male Crlj:WI (Wistar) rat; conditions: dexamethasone 1 mg/mL pump alone or combined with CNP derivative (A) 20 mg/mL pump, continuous s.c. 28 days, mean ± SD, n=6
Method: Osmotic pumps (MINI-OSMOTIC PUMP Model 2004, available from DURECT CORPORATION, flow rate: 0.25 μL/hr, for 28 days) were charged with a 1 mg/mL solution of dexamethasone (dexamethasone injection “KS”, available from Kyoritsuseiyaku Corporation, Group 2 and Group 3) or saline in a control group (Group 1), and one osmotic pump was embedded in the hypoderm of the back of each 7-week-old male Crlj:WI (Wistar) rat. At the same time, one osmotic pump (the same as described above) charged with a 20 mg/mL solution of CNP derivative (A) in Group 3, or charged with Medium 1 (0.03 mol/L acetate buffer (pH 4.0)/1% benzyl alcohol/10% sucrose) in Group 1 and Group 2 was embedded in the hypoderm of the back simultaneously with the pump containing dexamethasone or saline. Then the animals were fed for 28 days, and the body weight, the body length (length from the top of the nose to the anus) and the tail length were measured on the final day, and after collecting the blood from the abdominal aorta under isoflurane anesthesia, the right femur and major organs (spleen, thymus, liver, heart and lung) were collected. Regarding the femur, the bone length and width were measured by using a caliper, and the organ weights were measured. Concentrations of cholesterol and IGF-1 in plasma prepared from the blood, were determined by using cholesterol E-Test Wako (available from Wako Pure Chemical Industries, Ltd.) and Quantikine® ELISA Mouse/Rat IGF-I Immunoassay (MG100, available from R&D Systems). [Result]

[3] = tested on: steroid-induced growth failure, male Crlj:WI (Wistar) rat; test: Simultaneous combined administration test of various steroids and CNP derivative (A) in rats (Example 5)
Method: 0.3 mg/mL solution of dexamethasone (dexamethasone injection “KS”, available from Kyoritsuseiyaku Corporation diluted with saline), prednisolone succinate suspended in 0.1% polysorbate-containing brine (available from Wako Pure Chemical Industries, Ltd., concentration of 5 mg/mL as prednisolone), or betamethasone dipropionate suspended in 0.1% polysorbate-containing brine (available from Wako Pure Chemical Industries, Ltd., concentration of 0.3 mg/mL as betamethasone) was administered to the hypoderm of the back of a 4-week-old male Crlj:WI (Wistar) rat (ten animals for each set of substances) in a volume of 1 mL/kg once a day for 28 days. No substance was administered to the control group (5 animals, Group 1). At the same time, for five of ten animals in each set (Group 2, Group 4, Group 6) a medium (0.03 mol/L acetate buffer (pH 4.0)/1% benzyl alcohol/10% sucrose) and for the remaining five animals (Group 3, Group 5, Group 7) the medium and a 1 mg/mL solution of CNP derivative (A) were administered in combination in the hypoderm of the back in a volume of 1 mL/kg once a day for 28 days. After measuring the body weight, the body length and the tail length under isoflurane anesthesia on the day after the final day of administration, blood was collected from the abdominal aorta and the animal was caused to die, the right femur was extracted and the femur length was measured.

male Crl: CD (SD) rat = test: Preparation of dexamethasone-induced growth failure model rat (Example 1); conditions: continuous s.c. dexamethasone 0.5 or 1 mg/mL, 28 days
Method: Osmotic pumps (MINI-OSMOTIC PUMP Model 2004, available from DURECT CORPORATION, flow rate: 0.25 μL/hr, for 28 days) were charged with dexamethasone (dexamethasone injection “KS”, available from Kyoritsuseiyaku Corporation) having a concentration of 0.5 mg/mL (Group 2) or 1 mg/mL (Group 3), and one osmotic pump was embedded in the hypoderm of the back of each 7-week-old male Crl: CD (SD) rat (5 animals/group, a total of 10 animals). Additionally, in a control group (Group 1, 5 animals), one osmotic pump (the same as above) charged with saline was embedded in the hypoderm of the back of each animal. Then the animals were fed for 28 days, and their bodyweight was measured twice or three times a week. On the final day, after blood collection under isoflurane anesthesia followed by immediate euthanasia, the right femur was extracted, and the length was measured. Plasma was separated from the collected blood, and cholesterol concentration was determined by using cholesterol E-Test Wako (available from Wako Pure Chemical Industries, Ltd.), and the plasma corticosterone concentration was determined by using a Corticosterone, ELISA Kit, AssayMax (96 well) (EC3001-1, available from ASSAYPRO LLC.).

[4] = dexamethasone 0.3 mg/mL, 1 mL/kg s.c. once a day 28 days, + medium or + CNP derivative (A) 1 mg/kg, n=5

In the case of `C[C@@H]1C[C@H]2[C@@H]3CCC4=CC(=O)C=C[C@]4(C)[C@@]3(F)[C@@H](O)C[C@]2(C)[C@@]1(O)C(=O)CO` [Dexamethasone, dexamethasone], the “Body weight at dissection” value ([1]; 0.25 μL/hr continuous s.c. 28 days, mean ± SD) is reported as 286 ± 17 g, the “Body length at dissection” value ([1]; continuous s.c. 28 days) is reported as 199 ± 2 mm and the “Body length, variation from preadministration value (Δ value)” value ([1]; continuous s.c. 28 days) is reported as “(23.8 ± 2.4) mm”. For the same compound, the “Body weight, variation from preadministration value (Δ value)” value ([1]; continuous s.c. 28 days) was “(118 ± 15) g”, the “Right femur length at dissection” value ([1]; continuous s.c. 28 days) was 32.7 ± 0.3 mm and the “Tail length at dissection” value ([1]; continuous s.c. 28 days) was 202 ± 3 mm. The “Tail length, variation from preadministration value (Δ value)” value ([1]; continuous s.c. 28 days) was “(35.2 ± 3.7) mm”, the “thymus body weight ratio” value ([1]; continuous s.c. 28 days) was “[0.11 ± 0.02%]” and the “thymus weight at dissection” value ([1]; continuous s.c. 28 days) was 0.36 ± 0.04 g. For the same compound, the “Body length at final day” value ([2]; 7-week-old male Wistar rat) was 219 ± 5 mm, the “Tail length at final day” value ([2]; 7-week-old male Wistar rat) was 195 ± 6 mm and the “Right femur Length” value ([2]; male Wistar rat) was 35.6 ± 0.6 mm. For the same compound, the “Right femur Wide (epiphyseal region, maximum width)” value ([2]; male Wistar rat) was 7.7 ± 0.4 ^NS mm, the “Body length at dissection” value [3, 4] was 177 ± 4 mm and the “Body length, variation from preadministration value (Δ value)” value [3, 4] was “(27 ± 5) mm”. For the same compound, the “Body weight, variation from preadministration value (Δ value)” value [3, 4] was “(69 ± 5) g”, the “Right femur length at dissection” value [3, 4] was 28.3 ± 0.4 mm and the “Tail length at dissection” value [3, 4] was 174 ± 4 mm. The “Tail length, variation from preadministration value (Δ value)” value [3, 4] was “(47 ± 7) mm”, the “Body weight at dissection” value ([3]; dexamethasone 0.3 mg/mL, 1 mL/kg s.c. once a day 28 days, + medium or + CNP derivative (A) 1 mg/mL, 1 mL/kg s.c. once a day, 4-week-old male Wistar rat, mean ± SD, n=5) was 176 ± 5 g and the “growth failure in rats by repeated administration of the steroid for 28 days (in words)” value ([3]; rat, in vivo, sc) was “induce growth failure”. For the same compound, the “body weight (in words)” value (male Crl: CD (SD) rat; SD rat (FIG. 1)) was “decreased dose-dependently” and the “femur length (in words)” value (male Crl: CD (SD) rat; SD rat (FIG. 2)) was “shortened dose-dependently”.
